One assay has as its target T1, P23H opsin (Mus musculus, UniProt P15409, P23H).
T1 construct: expressed in transfected cells
The assay can be described thus: Immunoblot of P23H opsin glycosylation in NIH3T3 cells. Particulars: for Improved glycosylation: P23H opsin; for glycosylation of P23H opsin (in words): immunoblot, PNGaseF, FIG. 3A-D. Further details: key to Improved glycosylation: n = no; y = yes. In kind it is cell-based. As for the experimental part:
NIH3T3-(P23H-opsin/GFP) or NIH3T3-(WT-opsin/GFP) cells were seeded in a 48-well plate (Corning Costar) at 3.2×10^5 cells per well and incubated at 37° C. with 5% CO2 for 2 h. One hundred-μL of assay medium containing a compound at 5× its final concentration was added to each well. The plate was gently shaken for 5 s before further incubation at 37° C. with 5% CO2 for 24 h. The assay medium then was aspirated, and cells were lysed with 100 μL per well PBS containing 0.1% Triton X-100 and complete protease inhibitor cocktail (Roche, Basel, Switzerland) followed by sonication for 3 s. Protein concentrations were determined with the Bradford assay. For PNGase F catalyzed deglycosylation, 3 μL of PNGase F (1,500 U, NEB) was added to the cell lysate and the mixture was incubated at room temperature for 1 h before immunoblotting. For NIH3T3-(P23H-opsin/GFP) cells, 15 μg of total protein were loaded per well onto an SDS-polyacrylamide gel; whereas for NIH3T3-(WT-opsin/GFP) cells, 10 μg of total protein was loaded per well. Opsin protein was immunostained with 0.2 μg mL^−1 horseradish peroxidase-conjugated 1D4 anti-rhodopsin antibody. Band intensities were measured with ImageJ software (http://imagej.nih.gov/ij/; National the Institutes of Health, Bethesda, MD, USA) and normalized to a glyceraldehyde 3-phosphate dehydrogenase (GAPDH) loading control.
Background: Immunoblotting shows a protein as a band on a membrane.

Another assay concerns the target T2, bovine opsin (Bos taurus, UniProt P02699).
T2 construct: ROS membranes were isolated from bovine retinas under dim red light; from tissue; host or cells: bovine retina rod outer segment (ROS) membranes, bleached with hydroxylamine
Kind of assay: Ligand-opsin binding by Trp fluorescence quenching in ROS disc membranes. Particulars: for EC50: opsin in disc membranes, read-out: EC50 of Trp fluorescence quenching at 330 nm. As for the experimental part:
ROS membranes were isolated from bovine retinas under dim red light. To remove membrane associated proteins, ROS membranes were washed with a hypotonic buffer composed of 5 mM bis-tris propane (BTP) and 1 mM EDTA, pH 7.5, followed by gentle homogenization with subsequent centrifugation at 25,000 g for 30 min. This procedure was repeated four times. The final membrane pellet was suspended in 10 mM sodium phosphate buffer, pH 7.0, and 50 mM hydroxylamine to a 3 mg mL^−1 concentration of rhodopsin, placed on ice and illuminated with a 150 Watt bulb for 30 min. Membranes were pelleted by centrifugation at 16,000 g for 5 min and then washed four times with 10 mM sodium phosphate buffer, pH 7.0, and 2% bovine serum albumin followed by 4 washes with 10 mM sodium phosphate buffer, pH 7.0, and 2 washes with 20 mM BTP, pH 7.5, and 100 mM NaCl. The concentration of opsin was measured with a UV-visible spectrophotometer and quantified using the absorption coefficient ε280 nm=81,200 M^−1 cm^−1.
Emission spectra were recorded with a Perkin Elmer L55 Luminescence Spectrophotometer at 20° C. between 300 and 450 nm after excitation at 295 nm, with excitation and emission slit bands set at 5 and 10 nm, respectively. Changes in Trp fluorescence (ΔF/F0; where ΔF is the difference between the initial Trp fluorescence recorded at 330 nm (F0) and Trp fluorescence recorded at 330 nm at a specified YC-001 concentration) were plotted as a function of the ligand concentration. Binding curves were fitted by the Hill function using Origin software for each compound and the EC50 was calculated. All experimental data were corrected for background and self-absorption of excitation and emission light (inner filter effect).

Molecules are shown by their SMILES.

The values below come from US12251373B2, “Compounds and methods of treating retinal degeneration” (CASE WESTERN RESERVE UNIVERSITY, priority 2017, dated 2025).

T2 sequence (P02699 whole entry): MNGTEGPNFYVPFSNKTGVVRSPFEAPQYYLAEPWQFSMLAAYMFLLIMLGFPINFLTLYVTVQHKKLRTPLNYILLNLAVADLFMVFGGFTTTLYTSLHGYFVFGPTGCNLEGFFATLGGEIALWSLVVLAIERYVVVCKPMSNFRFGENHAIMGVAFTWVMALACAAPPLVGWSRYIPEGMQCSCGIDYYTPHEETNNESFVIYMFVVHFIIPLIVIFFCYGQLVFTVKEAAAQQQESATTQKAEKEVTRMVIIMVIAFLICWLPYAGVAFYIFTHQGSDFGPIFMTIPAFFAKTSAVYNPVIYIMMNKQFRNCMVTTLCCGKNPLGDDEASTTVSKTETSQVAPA

One may read the EC50 as the concentration that produces a half-maximal response. As for `CC1=C(/C=C/C(C)=C\C=C\C(C)=C\C=O)C(C)(C)CCC1` [9-cis-retinal, reference compound], at P23H opsin, the Improved glycosylation entry is given as “y” and the “glycosylation of P23H opsin (in words)” value is listed as “improvement of glycosylation”. Further, the EC50 on bovine opsin came to 1200 ± 100 nM.

Consider `O=C(CCCCCN1C(=O)c2cccc3cccc(c23)C1=O)NO` [Scriptaid, reference compound], for which, at P23H opsin, the Improved glycosylation result is on record as “n” and the “glycosylation of P23H opsin (in words)” value was “does not affect the glycosylation”. Besides, at bovine opsin (FIG. 3G), the “effect on Trp fluorescence” value is “didn't affect Trp fluorescence”.

Consider `O=C1OCC(c2ccc(Cl)s2)=C1c1cccs1` [YC-001], for which, on P23H opsin, the Improved glycosylation entry is reported as “y” and the “glycosylation of P23H opsin (in words)” value is “improvement of glycosylation”. The concentration giving a half-maximal response (EC50) on bovine opsin came out at 980 ± 50 nM.
